According to patent US12503484B2, “Androstane derivatives with activity as pure or predominantly pure stimulators of SERCA2a for the treatment of heart failure” (Seismic Pharmaceuticals, priority 2019, dated 2025):
Structures can show the parent of a compound that is named as a salt. Where two headings read alike, the source gives them in different places.

Columns and labels:
[1] = Acute toxicity in the mouse; details: Albino Swiss CD-1, in vivo
Procedure: The acute toxicity of the tested compound CVie214-salt and CVie216-salt have been determined in the mouse (Albino Swiss CD-1, body weight 30 g). Compounds have been orally administered or intravenously injected at increasing doses to identify the dose causing 50% mortality. Mortality occurred within 30 min after the administration and survival after 24 h.
As comparison, the acute toxicity for the reference compounds Digoxin and Istaroxime were also included. Digoxin refers to literature data (www.lookchem.com, Reference for Digoxin intravenous: Afifi A M, Ammar E M. Pharmacological Research Communications. Vol. 6, Pg. 417, 1974; Reference for Digoxin oral: Archives Internationales de Pharmacodynamie et de Therapie. Vol. 153, Pg. 436, 1965) (Table 3).

STZ diabetic rats = test: Haemodynamics in streptozotocin diabetic rats (echocardiography); format: in vivo, rat; details: for diastolic function (in words) / overall cardiac function, SV and CO (in words): IV infusion
Procedure: CVie214 and CVie216 were tested in a diabetic rat model. Briefly, rats were injected with streptozotocin (STZ). After 7-9 weeks from STZ injection, rats were submitted to transthoracic echocardiographic and Doppler evaluation performed under urethane anesthesia. Two-dimensionally guided M-mode recordings were used to obtain short-axis measurements of left ventricular end-diastolic diameter (LVEDD), left ventricular end-systolic diameter (LVESD), posterior (PW) and septal (SW) diastolic wall thickness according to the American Society of Echocardiography guidelines (Lang R M et al., Eur J Echocardiography 2006, 7:79-108). Fractional shortening was calculated as FS=(LVEDD−LVESD)/LVEDD. Relative wall thickness was calculated as PWTd+IVSTd/LVEDD. Mitral inflow was measured by pulsed Doppler at the tips of mitral leaflets from an apical 4-chamber view to obtain early and late filling velocities (E, A) and deceleration time of early filling velocity (DT). The deceleration slope was calculated as E/DT ratio. The mitral deceleration index was calculated as DT/E ratio. Tissue Doppler Imaging (TDI) was evaluated from the apical 4-chamber view to record septal mitral annular movements, i.e., peak myocardial systolic (s′) and early and late diastolic velocity (e′ and a′).
After baseline hemodynamic measurements were taken, the rats were administered Digoxin, CVie214, CVie216 and compared to control. Digoxin, used as reference drug, was intravenously infused at 0.11 mg/kg/min for 15 min and echocardiographic parameters measured after 1 h. CVie214-salt and CVie216-salt were intravenously infused in STZ diabetic rats at 0.2 mg/kg/min and echocardiographic parameters were measured after 15 min and 30 min.
Tables 4-6 show the haemodynamic parameters in STZ diabetic rats for Digoxin, CVie214-salt, and Cvie216-salt.

in vivo = test: in vivo; set-up: dose or concentration left out as unconfirmed; details: rat
[2] = biological target: dog renal Na^+/K^+ ATPase (Canis lupus familiaris (Dog) (Canis familiaris), UniProt P50997); details: read-out: IC50 inhibition of dog renal Na+/K+ ATPase; purified dog kidney enzyme;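 note: enzyme preincubated with inhibitor 10 min at 37 °C, then K^+ and ^32P-ATP added for 15 min, released ^32P counted, activity relative to untreated control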
From the text: Inhibition of Dog Renal Na^+/K^+ ATPase Activity
The compounds were thus tested for their inhibitory effect on the canine renal Na^+/K^+ ATPase enzyme.
Kidneys were excised from 1-3 year-old male beagle dogs (WuXi AppTec, Suzhou Co., Ltd. 1318 Wuzhong Ave., Wuzhong District Suzhou, 215104 P.R. China) under pentobarbital anesthesia (Import Authorization from Italian Health Ministry 0009171-09/04/2015-DGSAF-COD_UO-P, 2015). Kidneys were sliced and the outer medulla was dissected and suspended (1 g/10 ml) in a sucrose-histidine solution containing 250 mM sucrose, 30 mM histidine, and 5 mM EDTA, pH 7.2. The tissue was homogenized by using an Ultra Turrax homogenizer. The sample was centrifuged at 6,000 g for 15 min. Next, the supernatant was decanted and centrifuged at 48,000 g for 30 min. The pellet was suspended in the sucrose-histidine buffer and incubated for 20 min with a sodium-dodecyl-sulphate (SDS) solution dissolved in a gradient buffer containing 25 mM imidazole and 1 mM EDTA, pH 7.5. The sample was layered on the top of a sucrose discontinuous gradient (10, 15, and 29.4%) and centrifuged at 60,000 g for 115 min. The pellet was suspended in the gradient buffer.
Increasing concentrations of the standard ouabain, or tested compound, were incubated with 0.3 μg of purified dog kidney enzyme for 10 min at 37° C. in 120 μl final volume of a medium containing 140 mM NaCl, 3 mM MgCl2, 50 mM Hepes-Tris, 3 mM ATP, pH 7.5. Then, 10 μl of a solution containing 10 mM KCl and 20 nCi of ^32P-ATP (3-10 Ci/mmol, Perkin Elmer) were added. The reaction was allowed to continue for 15 min at 37° C. and then stopped by acidification with 20% v/v ice-cold perchloric acid. ^32P was separated by centrifugation with activated Charcoal (Norit A, Serva) and the radioactivity was counted. The inhibitory activity was expressed as percent of the control samples carried out in the absence of ouabain, or tested compound.

SERCA2a = SERCA2a (Cavia porcellus, UniProt A0A286XD73); details: literature; cited from earlier work
Chain of SERCA2a (A0A286XD73 1-997): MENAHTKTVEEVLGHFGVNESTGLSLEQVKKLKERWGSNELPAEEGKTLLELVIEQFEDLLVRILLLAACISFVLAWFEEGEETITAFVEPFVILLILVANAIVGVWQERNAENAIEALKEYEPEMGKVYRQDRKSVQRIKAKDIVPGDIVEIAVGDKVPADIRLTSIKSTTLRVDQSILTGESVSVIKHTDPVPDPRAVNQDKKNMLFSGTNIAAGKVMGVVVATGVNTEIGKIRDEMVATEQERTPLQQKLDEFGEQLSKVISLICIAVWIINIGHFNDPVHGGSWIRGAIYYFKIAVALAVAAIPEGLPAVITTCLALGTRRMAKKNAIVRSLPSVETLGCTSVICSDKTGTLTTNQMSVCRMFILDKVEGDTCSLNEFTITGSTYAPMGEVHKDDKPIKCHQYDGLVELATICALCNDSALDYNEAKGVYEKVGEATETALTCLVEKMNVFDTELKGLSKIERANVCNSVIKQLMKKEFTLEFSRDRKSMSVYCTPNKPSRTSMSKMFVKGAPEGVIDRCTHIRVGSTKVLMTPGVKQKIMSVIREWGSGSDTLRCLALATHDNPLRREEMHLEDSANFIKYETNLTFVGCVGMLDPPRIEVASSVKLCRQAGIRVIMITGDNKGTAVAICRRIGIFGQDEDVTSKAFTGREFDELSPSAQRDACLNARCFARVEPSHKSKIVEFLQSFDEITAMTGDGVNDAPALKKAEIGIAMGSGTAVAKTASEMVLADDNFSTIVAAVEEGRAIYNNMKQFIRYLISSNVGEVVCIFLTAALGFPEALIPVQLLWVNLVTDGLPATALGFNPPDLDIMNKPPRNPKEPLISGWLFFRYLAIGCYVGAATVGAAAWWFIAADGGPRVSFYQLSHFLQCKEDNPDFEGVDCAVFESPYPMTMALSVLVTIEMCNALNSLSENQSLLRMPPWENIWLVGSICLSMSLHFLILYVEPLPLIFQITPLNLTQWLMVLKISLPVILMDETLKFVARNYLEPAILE

[3] = test system: rat ventricular myocytes isolated from STZ rats; details: literature; cited from earlier work
[4] = test system: mouse (Albino Swiss CD-1); details: data from literature, cited from earlier work
[5] = after 15 min IV infusion 0.2 mg/kg/min
[6] = after 30 min IV infusion 0.2 mg/kg/min
[7] = after 15 min Digoxin IV infusion 0.11 mg/kg/min

**Q.** For `C[C@]12CC[C@H](CCCC(=O)O)CC1[C@@H](O)CC1C2CC[C@]2(C)C(=O)CCC12` (stereo partly drawn) [CVie214-salt, 4-(6alpha-hydroxy-17-oxoandrostane-3-yl) butyric acid], which LD50 at 24 h ([1]; iv) is on record?
**A.** 300 mg/kg

**Q.** And the LD50 at 24 h ([1]; oral, os)?
**A.** > 800 mg/kg

**Q.** And the “diastolic function (in words)” value (STZ diabetic rats)?
**A.** ameliorated diastolic function

**Q.** And the “overall cardiac function, SV and CO (in words)” value (STZ diabetic rats)?
**A.** improvement

**Q.** What about the “A late filling velocity of mitral inflow” value (STZ diabetic rats; [5]) of the same molecule?
**A.** 0.65 ± 0.13 m/s

**Q.** What about the CO cardiac output (STZ diabetic rats; [5]) of the same molecule?
**A.** 177.23 ± 40.64 mL/min

**Q.** What about the “DT deceleration time of E wave” value (STZ diabetic rats; [5]) of the same molecule?
**A.** 42.5 ± 10.19 ms

**Q.** What about the “DT/E mitral deceleration index” value (STZ diabetic rats; [5]) of the same molecule?
**A.** 49.52 ± 12.41 s2/m

**Q.** And the “E early filling velocity of mitral inflow” value (STZ diabetic rats; [5])?
**A.** 0.88 ± 0.15 m/s

**Q.** And the “E/A index of LV function” value (STZ diabetic rats; [5])?
**A.** 1.36 ± 0.17

**Q.** What about the E/DT deceleration slope (STZ diabetic rats; [5]) of the same molecule?
**A.** 21.49 ± 5.8 m/s2

**Q.** What about the “E/e′ index of LV filling pressure” value (STZ diabetic rats; [5]) of the same molecule?
**A.** 37.49 ± 4.34

**Q.** What about the FS fractional shortening (STZ diabetic rats; [5]) of the same molecule?
**A.** 58.1 ± 8.59%

**Q.** And the HR heart rate (STZ diabetic rats; [5])?
**A.** 268 ± 54 beat/min

**Q.** And the SV stroke volume (STZ diabetic rats; [5])?
**A.** 0.68 ± 0.19 ml/beat

**Q.** And the “a′ TDI late relaxation velocity” value (STZ diabetic rats; [5])?
**A.** 29.13 ± 6.56 cm/s

**Q.** What about the “e′ TDI early relaxation velocity” value (STZ diabetic rats; [5]) of the same molecule?
**A.** 23.33 ± 2.62 cm/s

**Q.** What about the “s′ TDI contraction velocity” value (STZ diabetic rats; [5]) of the same molecule?
**A.** 22.45 ± 3.12 cm/s

**Q.** What about the “A late filling velocity of mitral inflow” value (STZ diabetic rats; [6]) of the same molecule?
**A.** 0.69 ± 0.11 m/s

**Q.** And the CO cardiac output (STZ diabetic rats; [6])?
**A.** 175.15 ± 33.96 mL/min

**Q.** What about the “DT deceleration time of E wave” value (STZ diabetic rats; [6]) of the same molecule?
**A.** 42.15 ± 9.88 ms

**Q.** What about the “DT/E mitral deceleration index” value (STZ diabetic rats; [6]) of the same molecule?
**A.** 48.51 ± 16.44 s2/m

**Q.** What about the “E early filling velocity of mitral inflow” value (STZ diabetic rats; [6]) of the same molecule?
**A.** 0.91 ± 0.16 m/s

**Q.** And the “E/A index of LV function” value (STZ diabetic rats; [6])?
**A.** 1.34 ± 0.21

**Q.** And the E/DT deceleration slope (STZ diabetic rats; [6])?
**A.** 23.18 ± 8.37 m/s2

**Q.** What about the “E/e′ index of LV filling pressure” value (STZ diabetic rats; [6]) of the same molecule?
**A.** 37.47 ± 4.48

**Q.** What about the FS fractional shortening (STZ diabetic rats; [6]) of the same molecule?
**A.** 60.69 ± 8.36%

**Q.** And the HR heart rate (STZ diabetic rats; [6])?
**A.** 252 ± 49 beat/min

**Q.** And the SV stroke volume (STZ diabetic rats; [6])?
**A.** 0.71 ± 0.16 ml/beat

**Q.** What about the “a′ TDI late relaxation velocity” value (STZ diabetic rats; [6]) of the same molecule?
**A.** 28.94 ± 5.32 cm/s

**Q.** And the “e′ TDI early relaxation velocity” value (STZ diabetic rats; [6])?
**A.** 24.24 ± 2.34 cm/s

**Q.** And the “s′ TDI contraction velocity” value (STZ diabetic rats; [6])?
**A.** 21.82 ± 2.81 cm/s

**Q.** What about the bioavailability (in vivo) of the same molecule?
**A.** 41.5%

**Q.** Which results are given for `C[C@H]1O[C@@H](O[C@H]2[C@@H](O)C[C@H](O[C@H]3[C@@H](O)C[C@H](O[C@H]4CC[C@@]5(C)[C@H](CC[C@@H]6[C@@H]5C[C@@H](O)[C@]5(C)[C@@H](C7=CC(=O)OC7)CC[C@]65O)C4)O[C@@H]3C)O[C@@H]2C)C[C@H](O)[C@@H]1O` [Digoxin, reference compound]?
**A.** diastolic function (in words) (STZ diabetic rats): ameliorated diastolic function; overall cardiac function, SV and CO (in words) (STZ diabetic rats): did not affect; A late filling velocity of mitral inflow (STZ diabetic rats; [7]): 0.79 ± 0.19 m/s; CO cardiac output (STZ diabetic rats; [7]): 155.6 ± 45.7 mL/min; DT deceleration time of E wave (STZ diabetic rats; [7]): 44.1 ± 10.29 ms; DT/E mitral deceleration index (STZ diabetic rats; [7]): 50.18 ± 17.05 s2/m; E early filling velocity of mitral inflow (STZ diabetic rats; [7]): 0.92 ± 0.19 m/s; E/A index of LV function (STZ diabetic rats; [7]): 1.20 ± 0.21; E/DT deceleration slope (STZ diabetic rats; [7]): 22.66 ± 9.56 m/s2; E/e′ index of LV filling pressure (STZ diabetic rats; [7]): 38.95 ± 7.31; FS fractional shortening (STZ diabetic rats; [7]): 53.1 ± 5.6*6%; HR heart rate (STZ diabetic rats; [7]): 257 ± 36 beat/min; SV stroke volume (STZ diabetic rats; [7]): 0.6 ± 0.12 ml/beat; a′ TDI late relaxation velocity (STZ diabetic rats; [7]): 29.78 ± 6.17 cm/s; e′ TDI early relaxation velocity (STZ diabetic rats; [7]): 23.82 ± 2.87 cm/s; s′ TDI contraction velocity (STZ diabetic rats; [7]): 26.03 ± 4.66 cm/s; IC50 [2]: 180 nM; stimulation of SERCA2a activity (in words) (SERCA2a): failed to stimulate; effect detected by the SR loading protocol [3]: did not detect any effect; LD50 ([4]; iv): 7.7 mg/kg; LD50 ([4]; os): 17.8 mg/kg
